In ChEMBL document CHEMBL1201862, “PubChem BioAssay data set” (2004):
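Tested at 5 concentrations; 48 h exposure; 96-well plates; endpoints linearly interpolated, else capped at highest concentration. GI50 marks 50% less growth.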 The source made the active and inactive calls. Rule as the data show it: active = GI50 up to about 1.1 µM and inactive = higher.

How the values were obtained:
Experiment in all cases: DTP human tumour cell line panel, 48 h
[1] = tested on: A549
[2] = tested on: BT-549
[3] = tested on: HCT-116
[4] = tested on: HL-60
[5] = tested on: HT-29
[6] = tested on: IGROV-1
[7] = tested on: MDA-N
[8] = tested on: NCI-H226
[9] = tested on: NCI-H23
[10] = tested on: NCI-H522
[11] = tested on: NCI/ADR-RES
[12] = tested on: OVCAR-5
[13] = tested on: OVCAR-8
[14] = tested on: RPMI-8226
[15] = tested on: SF-295
[16] = tested on: SF-539
[17] = tested on: SR
[18] = tested on: TK-10
[19] = tested on: UACC-257
[20] = tested on: DMS-114

Measured: GI50

COC(=O)c1ccccc1/C=C1\Cc2ccc3c(c2C1=O)CCCC3
inactive: [1] > 100 µM | [2] > 100 µM | [3] > 100 µM | [4] > 10 µM | [5] > 100 µM | [6] > 100 µM | [7] > 100 µM | [8] > 100 µM | [9] > 100 µM | [10] > 100 µM | [11] > 100 µM | [12] > 100 µM | [13] > 100 µM | [14] > 100 µM | [15] > 100 µM | [16] > 100 µM | [17] > 100 µM | [18] > 100 µM | [19] > 100 µM

Cc1cc(NS(=O)(=O)c2ccc(Nc3c4ccccc4nc4c(C(=O)N5CCN(CCOS(C)(=O)=O)CC5)cccc34)cc2)no1
inactive: [1] > 100 µM | [20] > 100 µM | [3] > 100 µM | [4] > 100 µM | [5] > 100 µM | [6] > 100 µM | [8] > 100 µM | [9] > 100 µM | [12] > 100 µM | [13] > 100 µM | [14] > 100 µM | [15] > 100 µM | [16] > 100 µM | [18] > 100 µM | [19] > 100 µM

CCN(CC)CCCNc1c2c(Cl)cc(Cl)cc2nc2nc(O)nc(C)c12
inactive: [1] 42.9 µM | [2] 84.5 µM | [3] 17.1 µM | [4] 57.4 µM | [5] 18 µM | [6] 35.6 µM | [7] 18.6 µM | [8] 55.2 µM | [9] 55.8 µM | [10] 21.6 µM | [11] > 100 µM | [12] 19.9 µM | [13] > 10 µM | [14] > 10 µM | [15] 59.8 µM | [16] > 100 µM | [17] > 10 µM | [18] > 100 µM | [19] 43 µM

O=C(OCc1ccccc1)N1N=NC2C3CC(OCc4ccccc4)(OCc4ccccc4)C(O3)C21 (centres undefined)
inactive: [1] 17.3 µM | [20] 8.99 µM | [4] 7.59 µM | [5] 26 µM | [6] 49.5 µM | [8] 12.6 µM | [9] 12.8 µM | [12] 26 µM | [14] 7.24 µM | [15] 22.1 µM | [16] 32.7 µM | [19] 14 µM

CCCCC[C@H]1CC=CC(=O)O1
inactive: [1] 5.86 µM | [2] 4.06 µM | [3] 3.16 µM | [4] 2.88 µM | [5] 4.03 µM | [6] 5.27 µM | [7] 5.02 µM | [8] 4.13 µM | [9] 17.9 µM | [10] 2.78 µM | [11] 5.92 µM | [12] 24 µM | [13] 8.28 µM | [14] 2.86 µM | [15] 10.4 µM | [16] 1.56 µM | [17] 2.03 µM | [18] 9.48 µM | [19] 12.1 µM

O=c1ccn(CC2(CO)CCC2)c(=O)[nH]1
inactive: [1] > 100 µM | [2] > 100 µM | [3] > 100 µM | [4] > 100 µM | [5] > 100 µM | [6] > 100 µM | [7] > 100 µM | [8] > 100 µM | [9] > 100 µM | [10] > 100 µM | [11] > 100 µM | [12] > 100 µM | [13] > 100 µM | [14] > 100 µM | [15] > 100 µM | [16] > 100 µM | [17] > 100 µM | [18] > 100 µM | [19] > 100 µM

O/N=C\C(=N/O)Nc1ccc(Cc2ccc(NC(/C=N\O)=N/O)cc2)cc1
inactive: [1] 87.5 µM | [20] 69.3 µM | [3] 79.4 µM | [4] 22.5 µM | [5] 60.5 µM | [6] 34.4 µM | [8] 18.1 µM | [9] 55.5 µM | [10] 29.6 µM | [12] 89.9 µM | [13] 36.1 µM | [14] 30.5 µM | [15] 21.7 µM | [16] 45.2 µM | [18] 45.2 µM | [19] 56.1 µM

C/C(NC(=O)c1ccccc1)=C(/C(=O)c1ccccc1)[C@@H]1OC(C)(C)O[C@@H]1[C@H]1COC(C)(C)O1
inactive: [1] 29.9 µM | [2] 25.8 µM | [3] 19.5 µM | [4] 16 µM | [5] 27 µM | [6] 13.2 µM | [7] 18.6 µM | [8] 33 µM | [9] 22.9 µM | [10] 17.6 µM | [11] 27.7 µM | [12] 34.4 µM | [13] 29.2 µM | [14] 14.9 µM | [15] 30.9 µM | [16] 54 µM | [17] 19.5 µM | [18] 77.6 µM | [19] 30.8 µM

O=C(CCc1cc(-c2ccccc2)nc(S)n1)N(Cc1ccccc1)Cc1ccccc1
inactive: [1] > 100 µM | [20] > 100 µM | [3] > 100 µM | [4] > 100 µM | [5] > 100 µM | [6] > 100 µM | [8] > 100 µM | [9] > 100 µM | [10] > 100 µM | [12] > 100 µM | [13] > 100 µM | [14] > 100 µM | [15] > 100 µM | [16] > 100 µM | [18] > 100 µM | [19] > 100 µM

COc1ccc(/C=N/NC(=O)CSc2nc(-c3ccccc3)c(-c3ccccc3)[nH]2)cc1OC
inactive: [1] 45.9 µM | [20] 46.1 µM | [3] 34.5 µM | [4] 20.3 µM | [5] 29.8 µM | [6] 28.8 µM | [8] 30.8 µM | [9] 30.3 µM | [10] 19.7 µM | [12] 22 µM | [13] 16.2 µM | [14] 20.3 µM | [15] 24.2 µM | [16] 22.4 µM | [18] 35.4 µM | [19] 27.1 µM

COc1cc2c(cc1O)CC1c3c(cc(O)c(OC)c3-2)CCN1C (centres undefined)
inactive: [1] > 100 µM | [2] > 100 µM | [3] > 78 µM | [4] 91.4 µM | [5] 62.2 µM | [6] > 100 µM | [7] > 100 µM | [8] 69.7 µM | [9] > 100 µM | [10] 56.4 µM | [11] > 100 µM | [12] > 100 µM | [13] > 100 µM | [14] > 100 µM | [15] > 100 µM | [16] > 39.9 µM | [17] > 59.7 µM | [18] > 100 µM | [19] > 100 µM
